Values quoted from earlier work, collected in patent US10272077B2, “Piperidinone carboxamide azaindane CGRP receptor antagonists” (Merck Sharp & Dohme Corp., priority 2010, dated 2019).
Ends that are not written are not given here.

Experiments:
[1] = marmoset (Doods et al. 2000)
[2] = control group (Petersen et al. 2005)
[3] = rat (Escott et al. 1995)
[4] = rats, prior administration (Williamson et al. 1997)

For `NCCCC[C@H](NC(=O)[C@@H](Cc1cc(Br)c(O)c(Br)c1)NC(=O)N1CCC(N2Cc3ccccc3NC2=O)CC1)C(=O)N1CCN(c2ccncc2)CC1` [BIBN4096BS], the “treatment of acute attacks of migraine” value (clinical trials (Olesen et al. 2004)) is given as “effective in treating acute attacks of migraine”, the “effect on increase in facial blood flow” value [1] is given as “could be blocked” and the “prevention of headache induced by CGRP infusion” value [2] is given as “able to prevent headache induced by CGRP infusion”.
For `O=C(N[C@@H]1CC[C@@H](c2cccc(F)c2F)CN(CC(F)(F)F)C1=O)N1CCC(n2c(=O)[nH]c3ncccc32)CC1` [telcagepant], the antimigraine effectiveness (phase III clinical trials, orally bioavailable) is listed as “shown antimigraine effectiveness”.
For “CGRP(8-37) (VTHRLAGLLSRSGGVVKNNFVPTNVGSKAF; ends and bridges not checked; UniProt P06881 90-119, looked up, fragment) [a peptide CGRP receptor antagonist]”, the “effect on increased facial blood flow” value [3] is listed as “inhibited” and the “effect on increase of middle meningeal artery diameter” value [4] is listed as “blocked”.
